Assay results published in patent US8802597B2, “Herbicidal pyrimidines” (E I du Pont de Nemours and Company, priority 2003, dated 2014).
Where two headings read alike, the source gives them in different places.

What was measured:
Assay in all cases: Test C pre/postemergence
Type in all cases: in vivo
[1] = test system: johnsongrass (Sorghum halepense); conditions: Sorghum halepense, read-out: Plant response rating, Johnsongrass; for pest or weed control at 250 g/ha: 250 g ai/ha; for pest or weed control at 500 g/ha: 500 g ai/ha
Method in brief: (§1)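 We sprayed seeded pots preemergence and 2–18 cm seedlings postemergence with test chemicals in a non-phytotoxic solvent mixture including surfactant. Greenhouse plants were visually compared with untreated controls at 12 to 14 days and scored 0 (no effect) to 100 (complete control).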

kochia (Kochia scoparia) = conditions: Bassia scoparia; for pest or weed control at 62 g/ha: 62 g ai/ha; for pest or weed control at 125 g/ha: 125 g ai/ha; for pest or weed control at 250 g/ha: 250 g ai/ha; for pest or weed control at 500 g/ha: 500 g ai/ha
Method in brief: as §1

[2] = test system: morningglory (Ipomoea coccinea); conditions: Ipomoea; for pest or weed control at 62 g/ha: 62 g ai/ha; for pest or weed control at 125 g/ha: 125 g ai/ha; for pest or weed control at 250 g/ha: 250 g ai/ha; for pest or weed control at 500 g/ha: 500 g ai/ha
Method in brief: as §1

[3] = test system: pigweed (Amaranthus retroflexus); conditions: Amaranthus retroflexus; for pest or weed control at 62 g/ha: 62 g ai/ha; for pest or weed control at 125 g/ha: 125 g ai/ha; for pest or weed control at 250 g/ha: 250 g ai/ha; for pest or weed control at 500 g/ha: 500 g ai/ha
Method in brief: as §1

soybean (Glycine max) = conditions: Glycine max; for plant injury at 62 g/ha: 62 g ai/ha; for plant injury at 125 g/ha: 125 g ai/ha; for plant injury at 250 g/ha: 250 g ai/ha; for plant injury at 500 g/ha: 500 g ai/ha
Method in brief: as §1

[4] = test system: woolly cupgrass (Eriochloa villosa); conditions: Eriochloa villosa; for pest or weed control at 62 g/ha: 62 g ai/ha; for pest or weed control at 125 g/ha: 125 g ai/ha; for pest or weed control at 250 g/ha: 250 g ai/ha; for pest or weed control at 500 g/ha: 500 g ai/ha
Method in brief: as §1

[5] = post-emergence, Postemergence, scale 0 to 100
[6] = pre-emergence, Preemergence, scale 0 to 100
[7] = post-emergence, Postemergence, scale 0 to 100 (0 no effect, 100 complete control), read-out: Kochia plant response rating
[8] = post-emergence, Postemergence, scale 0 to 100, read-out: Plant response rating, Kochia
[9] = pre-emergence, Preemergence, scale 0 to 100, read-out: Plant response rating, Kochia
[10] = post-emergence, Postemergence, scale 0 to 100 (0 no effect, 100 complete control), read-out: Morningglory plant response rating
[11] = post-emergence, Postemergence, scale 0 to 100, read-out: Plant response rating, Morningglory
[12] = pre-emergence, Preemergence, scale 0 to 100, read-out: Plant response rating, Morningglory
[13] = post-emergence, Postemergence, scale 0 to 100 (0 no effect, 100 complete control), read-out: Pigweed plant response rating
[14] = post-emergence, Postemergence, scale 0 to 100, read-out: Plant response rating, Pigweed
[15] = pre-emergence, Preemergence, scale 0 to 100, read-out: Plant response rating, Pigweed
[16] = post-emergence, Postemergence, scale 0 to 100 (0 no effect, 100 complete control), read-out: Soybean plant response rating
[17] = post-emergence, Postemergence, scale 0 to 100, read-out: Plant response rating, Soybean
[18] = pre-emergence, Preemergence, scale 0 to 100, read-out: Plant response rating, Soybean
[19] = post-emergence, Postemergence, scale 0 to 100 (0 no effect, 100 complete control), read-out: Cupgrass, Woolly plant response rating
[20] = post-emergence, Postemergence, scale 0 to 100, read-out: Plant response rating, Cupgrass, Woolly
[21] = pre-emergence, Preemergence, scale 0 to 100, read-out: Plant response rating, Cupgrass, Woolly

Q: `CCOC(=O)c1nc(C2CC2)nc(N)c1Cl` [Compound 4, ethyl 6-amino-5-chloro-2-cyclopropyl-4-pyrimidinecarboxylate] was tested. Which pest or weed control at 250 g/ha [1, 5] did it give?
A: The pest or weed control at 250 g/ha was 95%.

Q: What about the pest or weed control at 500 g/ha [1, 5] of the same molecule?
A: The pest or weed control at 500 g/ha was 95%.

Q: What about the pest or weed control at 62 g/ha ([1]; pre-emergence, Preemergence, 62 g ai/ha, scale 0 to 100, 0 no effect, 100 complete control) of the same molecule?
A: Its pest or weed control at 62 g/ha is 50%.

Q: And the pest or weed control at 125 g/ha ([1]; pre-emergence, Preemergence, 125 g ai/ha, scale 0 to 100)?
A: Its pest or weed control at 125 g/ha is 70%.

Q: What about the pest or weed control at 250 g/ha [1, 6] of the same molecule?
A: Its pest or weed control at 250 g/ha is 90%.

Q: What about the pest or weed control at 500 g/ha [1, 6] of the same molecule?
A: Its pest or weed control at 500 g/ha is 95%.

Q: And the pest or weed control at 62 g/ha (kochia (Kochia scoparia); [7])?
A: Its pest or weed control at 62 g/ha is 100%.

Q: And the pest or weed control at 125 g/ha (kochia (Kochia scoparia); [7])?
A: Its pest or weed control at 125 g/ha is 100%.

Q: What about the pest or weed control at 250 g/ha (kochia (Kochia scoparia); [8]) of the same molecule?
A: Its pest or weed control at 250 g/ha is 100%.

Q: What about the pest or weed control at 500 g/ha (kochia (Kochia scoparia); [8]) of the same molecule?
A: Its pest or weed control at 500 g/ha is 100%.

Q: What about the pest or weed control at 62 g/ha (kochia (Kochia scoparia); pre-emergence, Preemergence, scale 0 to 100, 0 no effect, 100 complete control, read-out: Plant response rating, Kochia) of the same molecule?
A: Its pest or weed control at 62 g/ha is 95%.

Q: And the pest or weed control at 125 g/ha (kochia (Kochia scoparia); [9])?
A: Its pest or weed control at 125 g/ha is 100%.

Q: What about the pest or weed control at 250 g/ha (kochia (Kochia scoparia); [9]) of the same molecule?
A: Its pest or weed control at 250 g/ha is 100%.

Q: What about the pest or weed control at 500 g/ha (kochia (Kochia scoparia); [9]) of the same molecule?
A: The pest or weed control at 500 g/ha was 100%.

Q: What about the pest or weed control at 62 g/ha [2, 10] of the same molecule?
A: Its pest or weed control at 62 g/ha is 15%.

Q: And the pest or weed control at 125 g/ha [2, 10]?
A: Its pest or weed control at 125 g/ha is 100%.

Q: What about the pest or weed control at 250 g/ha [2, 11] of the same molecule?
A: Its pest or weed control at 250 g/ha is 100%.

Q: What about the pest or weed control at 500 g/ha [2, 11] of the same molecule?
A: Its pest or weed control at 500 g/ha is 100%.

Q: What about the pest or weed control at 62 g/ha ([2]; pre-emergence, Preemergence, scale 0 to 100, 0 no effect, 100 complete control, read-out: Plant response rating, Morningglory) of the same molecule?
A: The pest or weed control at 62 g/ha was 100%.

Q: And the pest or weed control at 125 g/ha [2, 12]?
A: The pest or weed control at 125 g/ha was 100%.

Q: And the pest or weed control at 250 g/ha [2, 12]?
A: The pest or weed control at 250 g/ha was 100%.

Q: What about the pest or weed control at 500 g/ha [2, 12] of the same molecule?
A: Its pest or weed control at 500 g/ha is 100%.

Q: What about the pest or weed control at 62 g/ha [3, 13] of the same molecule?
A: The pest or weed control at 62 g/ha was 100%.

Q: And the pest or weed control at 125 g/ha [3, 13]?
A: Its pest or weed control at 125 g/ha is 100%.

Q: And the pest or weed control at 250 g/ha [3, 14]?
A: Its pest or weed control at 250 g/ha is 100%.

Q: What about the pest or weed control at 500 g/ha [3, 14] of the same molecule?
A: Its pest or weed control at 500 g/ha is 100%.

Q: And the pest or weed control at 62 g/ha ([3]; pre-emergence, Preemergence, scale 0 to 100, 0 no effect, 100 complete control, read-out: Plant response rating, Pigweed)?
A: The pest or weed control at 62 g/ha was 95%.

Q: What about the pest or weed control at 125 g/ha [3, 15] of the same molecule?
A: The pest or weed control at 125 g/ha was 100%.

Q: What about the pest or weed control at 250 g/ha [3, 15] of the same molecule?
A: Its pest or weed control at 250 g/ha is 100%.

Q: What about the pest or weed control at 500 g/ha [3, 15] of the same molecule?
A: The pest or weed control at 500 g/ha was 100%.

Q: What about the plant injury at 62 g/ha (soybean (Glycine max); [16]) of the same molecule?
A: The plant injury at 62 g/ha was 100%.

Q: What about the plant injury at 125 g/ha (soybean (Glycine max); [16]) of the same molecule?
A: Its plant injury at 125 g/ha is 100%.

Q: What about the plant injury at 250 g/ha (soybean (Glycine max); [17]) of the same molecule?
A: The plant injury at 250 g/ha was 100%.

Q: And the plant injury at 500 g/ha (soybean (Glycine max); [17])?
A: The plant injury at 500 g/ha was 100%.

Q: What about the plant injury at 62 g/ha (soybean (Glycine max); pre-emergence, Preemergence, scale 0 to 100, 0 no effect, 100 complete control, read-out: Plant response rating, Soybean) of the same molecule?
A: The plant injury at 62 g/ha was 95%.

Q: What about the plant injury at 125 g/ha (soybean (Glycine max); [18]) of the same molecule?
A: The plant injury at 125 g/ha was 100%.

Q: What about the plant injury at 250 g/ha (soybean (Glycine max); [18]) of the same molecule?
A: Its plant injury at 250 g/ha is 100%.

Q: What about the plant injury at 500 g/ha (soybean (Glycine max); [18]) of the same molecule?
A: The plant injury at 500 g/ha was 100%.

Q: And the pest or weed control at 62 g/ha [4, 19]?
A: The pest or weed control at 62 g/ha was 60%.

Q: What about the pest or weed control at 125 g/ha [4, 19] of the same molecule?
A: The pest or weed control at 125 g/ha was 70%.

Q: What about the pest or weed control at 250 g/ha [4, 20] of the same molecule?
A: The pest or weed control at 250 g/ha was 85%.

Q: What about the pest or weed control at 500 g/ha [4, 20] of the same molecule?
A: The pest or weed control at 500 g/ha was 95%.

Q: And the pest or weed control at 62 g/ha ([4]; pre-emergence, Preemergence, scale 0 to 100, 0 no effect, 100 complete control, read-out: Plant response rating, Cupgrass, Woolly)?
A: Its pest or weed control at 62 g/ha is 0%.

Q: And the pest or weed control at 125 g/ha [4, 21]?
A: The pest or weed control at 125 g/ha was 80%.

Q: And the pest or weed control at 250 g/ha [4, 21]?
A: Its pest or weed control at 250 g/ha is 95%.

Q: And the pest or weed control at 500 g/ha [4, 21]?
A: The pest or weed control at 500 g/ha was 95%.
